Converted amounts (≈) assume the structure as drawn.
Columns and labels:
Sporothrix schenckii = assay: Antifungal activity against Sporothrix schenckii clinical isolate after 72 to 96 hrs by standard broth microdilution method; format: functional
Plasmodium falciparum [1] = assay: Antiplasmodial activity against chloroquine-sensitive Plasmodium falciparum 3D7 infected after 72 hrs by Malaria SYBR Green I-staining based fluorescence assay; format: functional, organism-based; conditions: 3D7, 72 h
[2] = tested on: Trichophyton mentagrophytes; assay: Antifungal activity against Trichophyton mentagrophytes clinical isolate after 72 to 96 hrs by standard broth microdilution method; format: functional
Pseudomonas aeruginosa = assay: Antimicrobial activity against Pseudomonas aeruginosa ATCC BAA-427 after 24 hrs by standard broth microdilution method; format: functional; conditions: ATCC BAA-427, 24 h
Aspergillus fumigatus = assay: Antifungal activity against Aspergillus fumigatus clinical isolate after 72 to 96 hrs by standard broth microdilution method; format: functional
Escherichia coli = assay: Antimicrobial activity against Escherichia coli ATCC 9637 after 24 hrs by standard broth microdilution method; format: functional; conditions: ATCC 9637, 24 h
Candida albicans = assay: Antifungal activity against Candida albicans clinical isolate after 24 to 48 hrs by standard broth microdilution method; format: functional
Klebsiella pneumoniae = assay: Antimicrobial activity against Klebsiella pneumoniae ATCC 27736 after 24 hrs by standard broth microdilution method; format: functional; conditions: ATCC 27736, 24 h
Plasmodium falciparum [3] = assay: Antiplasmodial activity against chloroquine-resistant Plasmodium falciparum K1 infected after 72 hrs by Malaria SYBR Green I-staining based fluorescence assay; format: functional, organism-based; conditions: K1, 72 h
[4] = Selectivity index, ratio of IC50 for african green monkey Vero cells to IC50 for chloroquine-sensitive Plasmodium falciparum 3D7; format: toxicity, cell-based; conditions: read-out: Ratio IC50
Candida parapsilosis = assay: Antifungal activity against Candida parapsilosis ATCC […] after 72 to 96 hrs by standard broth microdilution method; format: functional; conditions: Lodderomyces parapsilosis
Cryptococcus neoformans = assay: Antifungal activity against Cryptococcus neoformans clinical isolate after 24 to 48 hrs by standard broth microdilution method; format: functional
Staphylococcus aureus = assay: Antimicrobial activity against Staphylococcus aureus ATCC 25923 after 24 hrs by standard broth microdilution method; format: functional; conditions: ATCC 25923, 24 h

| SMILES | MIC (Sporothrix schenckii) [µg/mL] | IC50 (Plasmodium falciparum [1]) [nM] | MIC [2] [µg/mL] | MIC (Pseudomonas aeruginosa) [µg/mL] | MIC (Aspergillus fumigatus) [µg/mL] | MIC (Escherichia coli) [µg/mL] | MIC (Candida albicans) [µg/mL] | MIC (Klebsiella pneumoniae) [µg/mL] | IC50 (Plasmodium falciparum [3]) [nM] | selectivity ratio [4] | MIC (Candida parapsilosis) [µg/mL] | MIC (Cryptococcus neoformans) [µg/mL] | MIC (Staphylococcus aureus) [µg/mL] |
| --- | --- | --- | --- | --- | --- | --- | --- | --- | --- | --- | --- | --- | --- |
| Clc1ccc(/N=C(\NCCCCNc2ccnc3cc(Cl)ccc23)Nc2ccc(Oc3cc(Cl)ccc3Cl)cc2)cc1 | 6.25 (≈ 9.77 µM) | 29 | 12.5 (≈ 19.5 µM) | > 50 | 25 (≈ 39.1 µM) | 6.25 (≈ 9.77 µM) | 12.5 (≈ 19.5 µM) | 12.5 (≈ 19.5 µM) | 209 | 756 | 12.5 (≈ 19.5 µM) | 12.5 (≈ 19.5 µM) | 6.25 (≈ 9.77 µM) |
| Clc1cccc(/N=C(\NCCCNc2ccnc3cc(Cl)ccc23)Nc2ccccc2Oc2cc(Cl)ccc2Cl)c1 | 50 (≈ 80 µM) | 87.7 | 50 (≈ 80 µM) | > 50 | > 50 | 6.25 (≈ 9.99 µM) | 25 (≈ 40 µM) | > 50 | 77.7 | 18.7 | 50 (≈ 80 µM) | 50 (≈ 80 µM) | 1.56 (≈ 2.49 µM) |
| Clc1ccc(Cl)c(Oc2ccccc2N/C(=N/c2ccccc2)NCCCNc2ccnc3cc(Cl)ccc23)c1 | 12.5 (≈ 21.2 µM) | 74.7 | 12.5 (≈ 21.2 µM) | > 50 | > 50 | 12.5 (≈ 21.2 µM) | 12.5 (≈ 21.2 µM) | 12.5 (≈ 21.2 µM) | 176 | 116 | 50 (≈ 84.6 µM) | 25 (≈ 42.3 µM) | 3.12 (≈ 5.28 µM) |
| COC(=O)/C(C)=C/c1ccc(Oc2ccc(N/C(=N/c3cccc(Cl)c3)NCCCCNc3ccnc4cc(Cl)ccc34)cc2)cc1 | 50 (≈ 74.8 µM) | 51.9 | 50 (≈ 74.8 µM) | > 50 | > 50 | 12.5 (≈ 18.7 µM) | > 50 | 50 (≈ 74.8 µM) | 66.8 | 47.9 | > 50 | > 50 | 3.12 (≈ 4.67 µM) |
| COC(=O)/C(C)=C/c1ccc(Oc2ccccc2N/C(=N/c2cccc(Cl)c2)NCCCNc2ccnc3cc(Cl)ccc23)cc1 | 50 (≈ 76.4 µM) | 20.3 | 50 (≈ 76.4 µM) | > 50 | > 50 | 6.25 (≈ 9.55 µM) | 50 (≈ 76.4 µM) | 3.12 (≈ 4.77 µM) | 292 | 368 | > 50 | > 50 | 3.12 (≈ 4.77 µM) |
| COc1ccc(Oc2ccccc2N/C(=N/c2cccc(Cl)c2)NCCNc2ccnc3cc(Cl)ccc23)cc1 | > 50 | 43.4 | 12.5 (≈ 21.8 µM) | > 50 | 12.5 (≈ 21.8 µM) | 6.25 (≈ 10.9 µM) | 6.25 (≈ 10.9 µM) | 12.5 (≈ 21.8 µM) | 201 | 208 | > 50 | 12.5 (≈ 21.8 µM) | 6.25 (≈ 10.9 µM) |
| Clc1ccc(/N=C(\NCCCNc2ccnc3cc(Cl)ccc23)Nc2ccccc2Oc2cc(Cl)ccc2Cl)cc1 | 25 (≈ 40 µM) | 87.2 | > 50 | > 50 | > 50 | 12.5 (≈ 20 µM) | 6.25 (≈ 9.99 µM) | > 50 | > 800 | 112 | 50 (≈ 80 µM) | 25 (≈ 40 µM) | 6.25 (≈ 9.99 µM) |
| COC(=O)/C(C)=C/c1ccc(Oc2ccc(N/C(=N/c3cccc(Cl)c3)NCCNc3ccnc4cc(Cl)ccc34)cc2)cc1 | 25 (≈ 39 µM) | 48.9 | 25 (≈ 39 µM) | 50 (≈ 78.1 µM) | > 50 | 12.5 (≈ 19.5 µM) | 50 (≈ 78.1 µM) | 12.5 (≈ 19.5 µM) | 123 | 71.7 | 50 (≈ 78.1 µM) | 50 (≈ 78.1 µM) | 6.25 (≈ 9.76 µM) |
| COc1ccc(Oc2ccc(N/C(=N/c3cccc(Cl)c3)NCCNc3ccnc4cc(Cl)ccc34)cc2)cc1 | 12.5 (≈ 21.8 µM) | 88.7 | 12.5 (≈ 21.8 µM) | > 50 | > 50 | 12.5 (≈ 21.8 µM) | 25 (≈ 43.7 µM) | 12.5 (≈ 21.8 µM) | 83.3 | 91.3 | > 50 | > 50 | 12.5 (≈ 21.8 µM) |
| COC(=O)/C(C)=C/c1ccc(Oc2ccccc2N/C(=N/c2ccccc2)NCCCCNc2ccnc3cc(Cl)ccc23)cc1 | > 50 | 287 | > 50 | > 50 | > 50 | > 50 | > 50 | > 50 | 141 | 78 | > 50 | > 50 | > 50 |
| COC(=O)/C(C)=C/c1ccc(Oc2ccccc2N/C(=N/c2cccc(Cl)c2)NCCCCNc2ccnc3cc(Cl)ccc23)cc1 | > 50 | 31.2 | > 50 | > 50 | > 50 | 12.5 (≈ 18.7 µM) | 50 (≈ 74.8 µM) | > 50 | > 800 | 80.7 | > 50 | > 50 | 3.12 (≈ 4.67 µM) |
| COc1ccc(Oc2ccc(N/C(=N/c3cccc(Cl)c3)NCCCNc3ccnc4cc(Cl)ccc34)cc2)cc1 | 6.25 (≈ 10.7 µM) | 49.6 | 6.25 (≈ 10.7 µM) | > 50 | 25 (≈ 42.6 µM) | 6.25 (≈ 10.7 µM) | 6.25 (≈ 10.7 µM) | 12.5 (≈ 21.3 µM) | 236 | 158 | 12.5 (≈ 21.3 µM) | 25 (≈ 42.6 µM) | 6.25 (≈ 10.7 µM) |
| Clc1ccc(Cl)c(Oc2ccc(N/C(=N/c3ccccc3)NCCCNc3ccnc4cc(Cl)ccc34)cc2)c1 | 3.12 (≈ 5.28 µM) | 23.1 | 6.25 (≈ 10.6 µM) | > 50 | 6.25 (≈ 10.6 µM) | 3.12 (≈ 5.28 µM) | 12.5 (≈ 21.2 µM) | 25 (≈ 42.3 µM) | > 846 | 164 | 6.25 (≈ 10.6 µM) | 6.25 (≈ 10.6 µM) | 12.5 (≈ 21.2 µM) |
| COC(=O)/C(C)=C/c1ccc(Oc2ccccc2N/C(=N/c2ccc(Cl)cc2)NCCNc2ccnc3cc(Cl)ccc23)cc1 | 50 (≈ 78.1 µM) | 51.5 | 50 (≈ 78.1 µM) | > 50 | > 50 | 50 (≈ 78.1 µM) | 50 (≈ 78.1 µM) | > 50 | 419 | 46.2 | > 50 | 50 (≈ 78.1 µM) | 1.56 (≈ 2.44 µM) |
| Clc1cccc(/N=C(\NCCNc2ccnc3cc(Cl)ccc23)Nc2ccc(Oc3cc(Cl)ccc3Cl)cc2)c1 | 3.12 (≈ 5.1 µM) | 62.8 | 6.25 (≈ 10.2 µM) | > 50 | 50 (≈ 81.8 µM) | 6.25 (≈ 10.2 µM) | 3.12 (≈ 5.1 µM) | > 50 | > 817 | 53.2 | 25 (≈ 40.9 µM) | 12.5 (≈ 20.4 µM) | 12.5 (≈ 20.4 µM) |

— ChEMBL document CHEMBL3232804, “Synthesis and evaluation of new diaryl ether and quinoline hybrids as potential antiplasmodial and antimicrobial agents” (Bioorg Med Chem Lett, 2014)
